Patent US4659710A, “1,7-Naphthyridine derivatives and pharmaceutical compositions” (SS Pharmaceutical Co., Ltd., priority 1985, dated 1987)

What was measured:
[1] = Acute toxicity, rat; conditions: in vivo, po
[2] = system: carrageenan-induced swelling of the right hind paw; experiment: Anti-inflammatory effects: inhibition of carrageenan-induced hind paw swelling; type: in vivo, Wistar rats; conditions: oral, 60 min before carrageenan, foot volume 3 hours later
Experimental: After fasting a group of five Wistar rats of 6 weeks old for 18 hours, each test compound dissolved or suspended in a 0.5% solution of sodium carboxymethylcellulose (CMC-Na) was administered orally. Sixty minutes after the administration of the test compound, 0.1 ml of a 1% carrageenan solution was injected into subplanter surface of the right hind paw of each rat. The foot volume (A) was measured 3 hours later. From the foot volume (B) before the administration of carrageenan, the percent swelling ((A-B)/B×100) was calculated and compared with those of control rats.
Inhibition (%)= [formula]

[3] = Acute toxicity, mouse; conditions: in vivo, po
[4] = system: ouabain-induced arrhythmia; experiment: Antiarrhythmic effects: amount of ouabain required to induce arrhythmia; type: in vivo, Hartley male guinea pigs; conditions: 10 mg/kg i.v., ouabain infused at 4 μg/kg/min; for amount of ouabain required to induce unequal intervals of R-R wave: control 59.2; for amount of ouabain required to induce ventricular extrasystole or A-V block: control 80.5; for amount of ouabain required to induce ventricular extrasystole or A-V block / amount of ouabain required to induce ventricular fibrillation / amount of ouabain required to induce cardiac arrest: in µg/kg (unit assumed); for amount of ouabain required to induce ventricular fibrillation: control 170.0; for amount of ouabain required to induce cardiac arrest: control 246.6
Experimental: Using a group of five Hartley male guinea pigs (body weights: 530-990 g), their electrocardiograms were recorded from a limbic lead II under anesthesia with urethane 1.2 g/kg i.p. to investigate the antiarrhythmic effects. Namely, each test compound dissolved in 0.1N hydrochloric acid and diluted with a physiological saline was intravenously administered at a dose of 10 mg/kg. Immediately after the administration of the test compound, ouabain was continuously infused at a rate of 4 μg/kg/min through a polyethylene cannula inserted in the jugular vein of the guinea pigs so as to induce arrhythmia. The antiarrhythmic effects were judged from the amount of ouabain required to induce unequal intervals of R-R wave, ventricular extrasystole or A-V block, ventricular fibrillation and cardiac arrest.

[5] = system: spontaneously-beating atrial muscle; experiment: Cardiotonic effects: contractile force and heart rate of isolated spontaneously beating atria; parameters: species or system Hartley male guinea pig; conditions: cumulative
Experimental: The heart of a Hartley male guinea pig having a body weight of 500-800 g was removed. Its atrial muscles were isolated in Krebs-Henseleit's solution. A spontaneously-beating atrial muscle was suspended, in a bath containing 20 ml of Krebs-Henseleit's solution gassed with 95% O2 +5% CO2 at 32° C. Thereafter, the contractile force and its heart rate were measured. After stabilization, test compounds which were dissolved in a small amount of 1N hydrochloric acid or 0.1N hydrochloric acid and then diluted with a physiological saline, were administered cumulatively ([…]) to evaluate effects on the contractile force. The maximum percent change in increase of the contractile force induced by test compounds was determined and regarded as an index for cardiotonic (positive inotropic) effects. Heart rate increasing or decreasing effects (positive or negative chronotropism) were also observed.

CC(=O)Nc1cc2cccnc2c(N2CCN(CCO)CC2)n1 [Compound No. 22, 6-acetamido-8-[4-(2-hydroxyethyl)-1-piperazinyl]-1,7-naphthyridine]
LD50 [1]: > 3000 mg/kg
Inhibition (%) ([2]; 10 mg/kg): 42.4%
LD50 [3]: 1600 mg/kg
amount of ouabain required to induce unequal intervals of R-R wave [4]: 69.6 µg/kg
amount of ouabain required to induce ventricular extrasystole or A-V block [4]: 109.6
amount of ouabain required to induce ventricular fibrillation [4]: 285.4
amount of ouabain required to induce cardiac arrest [4]: 399.3

CCCCCCCC(=O)Nc1cc2cccnc2c(N2CCN(CCO)CC2)n1 [compound 25]
Inhibition (%) ([2]; 10 mg/kg): 44.6%

CNc1nc(NC(C)=O)cc2cccnc12 [compound 5]
Chronotropy, % of Control (in parentheses) ([5]; 3 × 10^-5 g/ml): 8.6%
Inotropy, % of Control ([5]; 3 × 10^-5 g/ml): 29.0%
Chronotropy, % of Control (in parentheses) ([5]; 3 × 10^-6 g/ml): 3.6%
Inotropy, % of Control ([5]; 3 × 10^-6 g/ml): 8.6%
Chronotropy, % of Control (in parentheses) ([5]; 10^-4 g/ml): 13.0%
Inotropy, % of Control ([5]; 10^-4 g/ml): 59.1%
Chronotropy, % of Control (in parentheses) ([5]; 10^-5 g/ml): 5.9%
Inotropy, % of Control ([5]; 10^-5 g/ml): 12.9%
Chronotropy, % of Control (in parentheses) ([5]; 10^-6 g/ml): 1.7%
Inotropy, % of Control ([5]; 10^-6 g/ml): 4.7%

CCOc1nc(NC(C)=O)cc2cccnc12 [compound 34]
Chronotropy, % of Control (in parentheses) ([5]; 3 × 10^-5 g/ml): 25.7%
Inotropy, % of Control ([5]; 3 × 10^-5 g/ml): 38.7%
Chronotropy, % of Control (in parentheses) ([5]; 3 × 10^-6 g/ml): 10.3%
Inotropy, % of Control ([5]; 3 × 10^-6 g/ml): 13.3%
Chronotropy, % of Control (in parentheses) ([5]; 10^-4 g/ml): 46.0%
Inotropy, % of Control ([5]; 10^-4 g/ml): 89.2%
Chronotropy, % of Control (in parentheses) ([5]; 10^-5 g/ml): 18.5%
Inotropy, % of Control ([5]; 10^-5 g/ml): 24.9%
Chronotropy, % of Control (in parentheses) ([5]; 10^-6 g/ml): 5.3%
Inotropy, % of Control ([5]; 10^-6 g/ml): 6.3%

Nc1cc2cccnc2c(N2CCOCC2)n1 [Compound No. 3, 6-amino-8-morpholino-1,7-naphthyridine]
Inhibition (%) ([2]; 100 mg/kg): 55.0%

Nc1cc2cccnc2c(N2CCN(CCO)CC2)n1 [Compound No. 4]
Inhibition (%) ([2]; 30 mg/kg): 54.0%
LD50 [3]: > 1000 mg/kg
amount of ouabain required to induce unequal intervals of R-R wave [4]: 59.1 µg/kg
amount of ouabain required to induce ventricular extrasystole or A-V block [4]: 78.9
amount of ouabain required to induce ventricular fibrillation [4]: 216.5
amount of ouabain required to induce cardiac arrest [4]: 277.5

CC(=O)Nc1cc2cccnc2c(NCc2cccnc2)n1 [Compound No. 13]
Chronotropy, % of Control (in parentheses) ([5]; 3 × 10^-5 g/ml): 1.9%
Inotropy, % of Control ([5]; 3 × 10^-5 g/ml): 52.3%
Chronotropy, % of Control (in parentheses) ([5]; 3 × 10^-6 g/ml): 1.6%
Inotropy, % of Control ([5]; 3 × 10^-6 g/ml): 8.7%
Chronotropy, % of Control (in parentheses) ([5]; 10^-4 g/ml): -11.8%
Inotropy, % of Control ([5]; 10^-4 g/ml): 92.9%
Chronotropy, % of Control (in parentheses) ([5]; 10^-5 g/ml): 3.1%
Inotropy, % of Control ([5]; 10^-5 g/ml): 24.6%
Chronotropy, % of Control (in parentheses) ([5]; 10^-6 g/ml): 0.2%
Inotropy, % of Control ([5]; 10^-6 g/ml): 2.6%
LD50 [3]: > 500 mg/kg

CC(=O)Nc1cc2cccnc2c(N2CCN(C)CC2)n1 [compound 19]
amount of ouabain required to induce unequal intervals of R-R wave [4]: 68.9 µg/kg
amount of ouabain required to induce ventricular extrasystole or A-V block [4]: 146.0
amount of ouabain required to induce cardiac arrest [4]: 392.1

CC(=O)Nc1cc2cccnc2c(NCC(O)CO)n1 (stereo not drawn) [compound 9]
Inhibition (%) ([2]; 30 mg/kg): 27.1%

CC(=O)Nc1cc2cccnc2c(N(C)C)n1 [Compound No. 16]
Chronotropy, % of Control (in parentheses) ([5]; 3 × 10^-5 g/ml): 7.0%
Inotropy, % of Control ([5]; 3 × 10^-5 g/ml): 36.8%
Chronotropy, % of Control (in parentheses) ([5]; 3 × 10^-6 g/ml): 1.6%
Inotropy, % of Control ([5]; 3 × 10^-6 g/ml): 4.5%
Chronotropy, % of Control (in parentheses) ([5]; 10^-4 g/ml): 19.0%
Inotropy, % of Control ([5]; 10^-4 g/ml): 103.2%
Chronotropy, % of Control (in parentheses) ([5]; 10^-5 g/ml): 3.3%
Inotropy, % of Control ([5]; 10^-5 g/ml): 12.5%
LD50 [3]: > 500 mg/kg

CC(=O)Nc1cc2cccnc2c(NCCCO)n1 [Compound No. 8]
Chronotropy, % of Control (in parentheses) ([5]; 3 × 10^-5 g/ml): 6.8%
Inotropy, % of Control ([5]; 3 × 10^-5 g/ml): 33.4%
Chronotropy, % of Control (in parentheses) ([5]; 3 × 10^-6 g/ml): 2.7%
Inotropy, % of Control ([5]; 3 × 10^-6 g/ml): 9.6%
Chronotropy, % of Control (in parentheses) ([5]; 10^-4 g/ml): 12.9%
Inotropy, % of Control ([5]; 10^-4 g/ml): 64.1%
Chronotropy, % of Control (in parentheses) ([5]; 10^-5 g/ml): 4.0%
Inotropy, % of Control ([5]; 10^-5 g/ml): 16.4%
Chronotropy, % of Control (in parentheses) ([5]; 10^-6 g/ml): 1.1%
Inotropy, % of Control ([5]; 10^-6 g/ml): 4.1%
